ChEMBL document CHEMBL4376905, “Selective Estrogen Receptor Degraders for the Potential Treatment of Cancer” (ACS Med Chem Lett, 2020)
Blank lines part the entries; values can stand above or below the compound they belong to.

Legend:
[1] = biological target: T1, Estrogen receptor (Homo sapiens, UniProt P03372); test: Induction of ERalpha protein degradation in human MCF7 cells assessed as reduction in ERalpha protein levels incubated for 24 hrs by In-cell western assay; assay type: cell-based; conditions: for DC50: mcf7, read-out: IC50 (the source's name)
T1 sequence (P03372 whole entry): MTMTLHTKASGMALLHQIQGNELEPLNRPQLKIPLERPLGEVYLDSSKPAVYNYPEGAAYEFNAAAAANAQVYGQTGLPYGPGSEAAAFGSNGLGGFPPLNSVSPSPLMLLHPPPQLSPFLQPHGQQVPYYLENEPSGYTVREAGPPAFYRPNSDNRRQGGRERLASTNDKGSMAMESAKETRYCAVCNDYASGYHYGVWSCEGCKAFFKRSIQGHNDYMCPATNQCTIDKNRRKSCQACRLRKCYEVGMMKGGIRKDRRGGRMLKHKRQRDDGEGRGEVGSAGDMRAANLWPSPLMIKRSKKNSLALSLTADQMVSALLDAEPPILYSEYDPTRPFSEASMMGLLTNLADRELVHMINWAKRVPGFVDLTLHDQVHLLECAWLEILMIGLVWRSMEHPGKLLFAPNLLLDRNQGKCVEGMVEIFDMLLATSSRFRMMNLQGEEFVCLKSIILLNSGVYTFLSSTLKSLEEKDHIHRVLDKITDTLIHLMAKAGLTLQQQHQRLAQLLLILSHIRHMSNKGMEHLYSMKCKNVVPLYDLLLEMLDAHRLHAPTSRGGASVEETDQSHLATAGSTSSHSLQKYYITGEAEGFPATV

[2] = biological target: T2, Estrogen receptor (Homo sapiens) (UniProt P03372); test: Displacement of [3H]estradiol from full length human ERalpha by competitive radiometric binding assay relative to estradiol
T2 sequence (whole entry): T1 sequence (P03372 whole entry)

[3] = system: MCF7; test: Antiproliferative activity against human MCF7 cells assessed as reduction in cell viability incubated for 6 days by WST1 dye based assay; assay type: functional; conditions: MCF7, 144 h

DC50 [1]: 3 nM
Compound: O=C(NCCCOc1ccc(C(=C2C3CC4CC(C3)CC2C4)c2ccc(O)cc2)cc1)C12CC3CC(CC(C3)C1)C2

IC50 [1]: 2 nM
Compound: O=C(NCCCCOc1ccc(C(=C2C3CC4CC(C3)CC2C4)c2ccc(O)cc2)cc1)C12CC3CC(CC1C3)C2

RBA [2]: 37%
IC50 [3]: 9 nM
Compound: O=C(NCCCCOc1ccc(C(=C2C3CC4CC(C3)CC2C4)c2ccc(O)cc2)cc1)[C@H]1C[C@@H]2C=C[C@H]1C2

DC50 [1]: 0.4 nM
Compound: O=C(NCCCCOc1ccc(C(=C2C3CC4CC(C3)CC2C4)c2ccc(O)cc2)cc1)C1CCCCC1
